US20050009775A1 (priority 2001, published 2005)

System: HCV replicon in the 5-15 subline of Huh-7 cells
Assay: Replicon ELISA (HCV replicon assay)
Type: cell-based, hepatitis C virus (HCV 1b)
Conditions: Hepatitis C virus; Huh-7 5-15 cells, HCV 1b replicon, 72 hours, NS4a ELISA
Text: The 5-15 subline of Huh-7 cells (Lohmann, V., Korner, F., Koch, J-O., Herian, U., Theilmann, L. & Bartenschlager, R., 1999, Science, 2, pp 110-113) were used for these assays. These are human hepatocellular carcinoma cells stably transfected with an HCV replicon comprising the majority of the HCV 1b genome with the addition of a selectable marker gene, but lacking the genes encoding for all structural proteins and non-structural protein (NS) 2. The replicon RNA is self-replicating and fully functional viral proteins are translated from it. A quantifiable and specific reduction of expressed protein in the presence of a drug can be used as a measure of replicon inhibition.
Stock solutions of compound samples were formulated to 40 mM in DMSO. […]
ELISA step: Growth medium was removed from the plate and the cell monolayers were washed gently once with phosphate buffered saline (PBS) prior to fixing with a 1:1 mix of acetone:methanol for 5 minutes. […] The reaction was stopped by the addition of 25 μl per well of 2M sulphuric acid and the plates were read spectrophotometrically at 490 nm. […]
The absorbance values from all compound-free wells that had received both primary and secondary antibodies were averaged to obtain a positive control value. The mean absorbance value from the compound-free wells that had not received the primary antibody was used to provide the negative (background) control value. […]

SMILES	IC50
COC(=O)[C@H](C)NP(=O)(OC[C@@H]1C[C@@H](O)[C@H](n2ccc(N)nc2=O)O1)Oc1ccccc1 (some centres unmarked) [Example 2]	< 200 µM
C[C@H](NP(=O)(OC[C@@H]1C[C@@H](O)[C@H](n2ccc(N)nc2=O)O1)Oc1ccccc1)C(=O)OCc1ccccc1 (some centres unmarked) [Example 3]	< 200 µM
